Data: ChEMBL document CHEMBL3507680, “University of Dundee, Gates Library screen for HepG2 cell viability”

Test: Human HepG2 cell viability assay in 384 well format
Assay type: toxicity, cell-based
Design: dose 125 nL, time 70.5 hour; concentration not given beside the values
Conditions: HepG2 cells, read-out: Inhibition

SMILES	cytotoxicity at 70.5 h [%]
Cc1ccnc(OC[C@]23COC[C@H]2CN(C(=O)C2=CCCCC2)C3)n1	-11.5
CN(Cc1cnn(C)c1)C(=O)c1cc(C(F)(F)F)n(C)n1	-15.3
Cc1cccc(C(C(=O)N(C)Cc2ccon2)N(C)C)c1 (centres undefined)	-0.0384
Cc1cncc(C(=O)N2CCN(c3cnn(C)c(=O)c3)CC2)c1	-6.5
CC(=O)c1ccc(N2CCCC(CO)(Cc3ccccc3C)C2)nc1 (centres undefined)	-3.1
CN(C)Cc1nc(-n2cnc(C(=O)NCC3CC3)c2)n2ccccc12	-3.22
COCCCNC(=O)c1c(-n2cnnn2)sc2c1CCC2	-3.39
CNC1CCN(C2CCN(c3ccc(-c4ccco4)cc3)CC2)CC1	8.23
O=C(c1cccnc1)N1CCCC(Cc2nccs2)C1 (centres undefined)	-6.74
CC(C)(NS(C)(=O)=O)c1nc(-c2ccncc2)no1	18.6
CC(C)(CCS(C)(=O)=O)CNC(=O)NC1CCCCC1(C)C (centres undefined)	28
O=C(NCC1=CCCCC1)C(c1cccnc1)N1CCOCC1 (centres undefined)	-1.14
Cc1nc(CNCC2CN(C3CC3)CCO2)cs1 (centres undefined)	23.8
CCN(CC)C(=O)c1ccc(Cl)c(NC(=O)c2cc[nH]n2)c1	13.3
O=C(c1cccc2ccnn12)N1CCC[C@H]1CN1CCCC1	6.92
COc1ccc(OC)c(-n2nnnc2SCC2CCCCO2)c1 (centres undefined)	-6.66
O=c1[nH]c(NC2CCCC2)nc2nccc(-c3ccsc3)c12	-4.5
CC(C)C1=NOC(c2nc(-c3cccc(Cl)c3)no2)C1 (centres undefined)	8.08
Cc1cccc(C(=O)N2CCC3(CC2)CC(c2cnn(C)c2)CO3)c1 (centres undefined)	-15
CN1CC2(CCN(C(=O)Cn3ncc4ccccc4c3=O)CC2)OC1=O	-13.8
O=S(=O)(C1CC1)N1CCOCC2(CCN(c3ccccn3)C2)C1 (centres undefined)	36.2
CCC(=O)N1CCCCC1c1nc(N(C)C)ncc1-c1cc(C)no1 (centres undefined)	1.06
CC1CN(C)CCN1C(=O)Cc1cc(Cl)c2c(c1)OCCO2 (centres undefined)	-6.51

SMILES	cytotoxicity at 70.5 h [%]
c1ccc(N2CCCC(c3nc(-c4cccnn4)no3)C2)nc1 (centres undefined)	-11.5
OCC1CCCN1c1cc(N2CCN(c3ccccn3)CC2)ncn1 (centres undefined)	-9.58
O=C1CNc2ncnc(Nc3cnn(Cc4ccc(F)cc4)c3)c2N1	-12.2
O=C(C1CCCOC1)N1CCc2ccc(F)cc21 (centres undefined)	1.26
NC(=O)Nc1cccc(CNC(=O)CCCOCc2ccccc2)c1	2.63
CC(c1nc(C2CC2)no1)N1CCN(CCOCC(F)(F)F)CC1 (centres undefined)	-8.3
CCOC(=O)C1(Cc2ccccc2)CCCN(Cc2nccn2CC)C1 (centres undefined)	-0.0866
CC(=O)Nc1cc2c(cc1C)OCO2	21.5
CCOCCNC(=O)c1cccc(S(=O)(=O)NC[C@@H]2C[C@H](F)CN2)c1	31.3
CCN1CC2(CCNCC2)COc2ccccc2S1(=O)=O	-15.6
CSCCC1c2nc[nH]c2CCN1Cc1cncn1C (centres undefined)	33.9
Cc1cccc(CNC[C@H]2Cn3cc(-c4ccccc4)nc3CO2)n1	-7.12
c1ccc(-c2nnc(CNC3CCCN(c4cccnn4)C3)o2)cc1 (centres undefined)	-16.9
Cn1cccc1C(=O)N1CCCC(Cn2cc(CO)nn2)C1 (centres undefined)	-2.41
CN(C)CCNC(=O)c1sc2ccccc2c1C1CCC(CN)CC1 (centres undefined)	8.65
CNC(=O)NC(=O)CNc1cc(C(=O)OC)cc(C(F)(F)F)c1	1.77
CCc1cc(NCCN2CCNC2=O)n2nc(C)c(C)c2n1	-11.4
CC(=O)N1CCC2(CC1)C(=O)N(C)c1c(F)cccc12	3.91
Cc1nc(NCc2ccccn2)c2c(n1)c(C)nn2C	5.97
COCC1CN(Cc2csc(C)n2)Cc2nccn2C1 (centres undefined)	2.98
Cn1ccnc1COc1ccc(NC(=O)CCC2CCCO2)cc1 (centres undefined)	-5.92
Cc1ccc(C(=O)NCc2ccc(N3CCNC(=O)C3)c(F)c2)cc1	-0.234
COCCN(C)C[C@@H]1CN(C(=O)c2ccc(O)c(Cl)c2)C[C@@H]1CO	-4.52

SMILES	cytotoxicity at 70.5 h [%]
c1ccc(CNCC2Cn3nncc3CO2)nc1 (centres undefined)	-7.76
COc1ccc2c(ccn2CCC(=O)NCCCC(=O)O)c1	-10.4
Cc1cccc(CSc2ncc(Cl)c(C(=O)O)n2)c1	-11
OCCN1CCOC2(CCCN(c3ncc(F)cn3)C2)C1 (centres undefined)	-3.36
Cc1ccc(CN2CC[C@H]3NC(=O)CC[C@@H]32)o1	-6.53
CC(C)NC(=O)C1(CC2CC(c3ccc(F)cc3)=NO2)CCNCC1 (centres undefined)	24.3
CCN1CCCC(C)(C(=O)NCc2nncn2CCc2ccccc2)C1 (centres undefined)	-8.53
O=C(NCc1cnc2n1CCN(CC1CC1)CC2)C1CCC1	-8.49
Cc1cccc(C(C(=O)NCc2nc(-c3cccnc3)no2)N(C)C)c1 (centres undefined)	19.5
Cc1cc(C)n(CC2CN(Cc3nc(C4CC4)no3)CCO2)n1 (centres undefined)	-4.87
CNC(=O)C1CN(c2ncccn2)CCN1Cc1ccccc1 (centres undefined)	-3.64
Cc1noc(C(C)N2CCN(c3ccc(C#N)cn3)CC2)n1 (centres undefined)	-10.1
CCc1cnc(NCCCN2CCC(O)CC2)nc1	-1.08
CCN1C(=O)CC(c2ccccc2)C12CCN(c1ncc(C)cn1)CC2 (centres undefined)	-3.7
Cc1cc(CN2CCN(Cc3ccc(C#N)cc3F)CC2)no1	1.27
CCOc1ccccc1C(CC(=O)Nc1ccccn1)NC(C)=O (centres undefined)	-5.35
CC(Oc1ccc(F)c(F)c1)C(=O)N(CC(N)=O)C1CCCC1 (centres undefined)	27.6
Cc1cc(NC2CC3(CCN(Cc4csc(C)n4)C3)C2)ncn1 (centres undefined)	-9.59
Cc1nn(C)cc1-c1ccnc(N(C)Cc2cccs2)n1	2.52
CSCC[C@H](N)C(=O)NCc1cc2n(n1)CCCN(C1CCCCC1)C2	-5.05
O=C(C1CCOCC1)N1C[C@H]2CCC[C@@]2(COCc2ccccn2)C1	-10.2
Cn1ccc2c(C(=O)N3CC[C@@]4(O)CCCC[C@H]4C3)cccc21	0.292
CCS(=O)(=O)N1CC[C@H]2O[C@H](c3nnc(C)o3)CC[C@H]21	-13.4

SMILES	cytotoxicity at 70.5 h [%]
Cc1cnc(C(=O)N(C)Cc2nc(-c3ccccn3)no2)cn1	1.35
COc1ccccc1C1(CNc2nnc(C)c(C)c2C#N)CCCC1	2.69
CCN(CC)S(=O)(=O)c1cnccc1N1CCN(C(C)C)CC1	7.88
CCCC(C)CN1CCC(n2cc(CCCO)nn2)CC1 (centres undefined)	-4.4
O=C(O)[C@H]1OCC(=O)N(Cc2cccc(Cl)c2)[C@@H]1c1ccccc1	-6.12
Cc1ccc(N(C)S(=O)(=O)c2cc(C(=O)O)cs2)c(C)c1	0.683
Clc1ccc(-c2nnc(CNCCn3cccn3)o2)c(Cl)c1	-6.39
CN(CCc1ccccn1)C(=O)C(O)c1ccc(Br)cc1 (centres undefined)	-4.38
Cc1nc2c(c(NCCc3nccs3)n1)CCN(CC1CC1)CC2	-14.3
CCC1CCCN(S(=O)(=O)c2cnc3onc(C)c3c2)C1 (centres undefined)	-4.44
Cc1ccc(NCCCNC(=O)C2CCCN(Cc3ccco3)C2)nc1 (centres undefined)	7.19
O=S(=O)(C1CC1)N1CCc2ncnc(-c3ccsc3)c2CC1	-0.114
CCN(CCc1nc2cc(C)ccc2[nH]1)C(=O)[C@@H](N)COC	10
Cc1cc(C[C@@H]2COC[C@@H]2NC(=O)CN2CCCN(C)CC2)on1	-7.54
COCCNC(=O)N1CCCCC1CNC(=O)Nc1ccccc1 (centres undefined)	-3.88
CS(=O)(=O)N1C[C@@H]2OCC(=O)N(CC3CCC3)[C@@H]2C1	-6.88
COCCN(Cc1cnn(C)c1)CC1CCN(C(C)C)CC1	-1.39
Cc1cccc2nc(CN3CCC(N4CCN(C)C4=O)CC3)cn12	-4.38
Cc1nc(CN2CCCC(CCc3ccccc3C(F)(F)F)C2)no1 (centres undefined)	-8.94
COCCc1noc(-c2cn(CCc3ccccc3)nn2)n1	2.44
Cc1cc(C2CCCN(C(=O)COc3ccc(F)cc3F)C2)n[nH]1 (centres undefined)	-4.95
c1cnc(N2CCO[C@H]3CN(CC4CCCC4)C[C@H]32)cn1	2.36
CCc1noc(C)c1C(=O)N1CCCN(Cc2csc(C)n2)CC1	-9.45

SMILES	cytotoxicity at 70.5 h [%]
COc1ccc(Cl)cc1NC(=O)CN1CCc2nc(NC(C)=O)sc2C1	18.9
Cc1cc(=O)c(C(=O)Nc2cccc(CCN3CCCC3)c2)c[nH]1	-2.1
CCC(C)C(=O)NCc1ccn(-c2ccc(F)cc2)n1 (centres undefined)	8.14
Cc1nc(C)n(CC2CCCN(CC(=O)Nc3nncs3)C2)n1 (centres undefined)	-6.97
Cn1nc(CO)c2c1CCN(c1ncnc3c1CCNC3)C2	-6.14
Cc1cc(-c2cnc(NCc3cccnc3)nc2C(C)(C)C)on1	-18.2
Cc1cc(CN(C)CC(c2cccs2)N2CCOCC2)on1 (centres undefined)	-7.4
O=C1CSC(c2cccnc2)c2c(n(C3CCOCC3)[nH]c2=O)N1 (centres undefined)	-24.2
COCCn1cc(CC(=O)Nc2nc3c(s2)CCC3)c2ccccc21	-6.21
CN(C)S(=O)(=O)N1CCC2(COCc3cnc(NCC4CC4)nc32)C1 (centres undefined)	29.2
CCOC(=O)N1CCC2(CCNC2)C1 (centres undefined)	-5.56
Cc1ccc(N2C[C@@H]3CCCO[C@@H]3[C@H](N3CCCC3)C2)nn1	27
CN(Cc1cccc(-n2cccn2)c1)C(=O)c1ccnc(N)c1	3.21
CNC(=O)c1cccc(C2CNCCN2C)c1 (centres undefined)	19.9
N#CC1(C(=O)N2CCN(Cc3cscn3)CC2)CCCC1	14.2
Cc1ccn(CCC(=O)NC(C)Cc2ccco2)n1 (centres undefined)	-6.56
Cn1cnc2c1CCN(CCCS(=O)(=O)c1ccccc1)C2	24.3
CN(C)c1nccc(C2CCCN2S(=O)(=O)c2cn(C)cn2)n1 (centres undefined)	-15.2
COC(=O)c1ccc(Cn2cccc(C(F)(F)F)c2=O)s1	-2.65
Cn1ccnc1CN1CCC2(CC1)CCN(c1ccccc1)C2=O	27.2
CC(C)CN1CCCC(c2nc(O)c3cc(F)ccc3n2)C1 (centres undefined)	1.3
COC(=O)NCC(=O)N1CCc2cc(Cl)cc(Cl)c2C1	-1.77
